Experiments:
[1] = system: Subjects Having Insomnia Disorder; assay: Example 1: Insomnia Severity Index Daytime Functioning (Items 4-7); format: in vivo, human
Source text: As used herein, the term “Insomnia Severity Index”, abbreviated as “ISI”, is an index calculated using a 7-item, self-report questionnaire assessing the nature, severity, and impact of insomnia (see Bastien, C. H., et al. “Validation of the Insomnia Severity Index as an outcome measure for insomnia research.” Sleep Med. 2001; 2(4): 297-307). The questionnaire evaluates: (1) severity of sleep onset; (2) sleep maintenance; (3) early morning awakening problems; (4) sleep dissatisfaction; (5) interference caused by sleep difficulties with daytime functioning; (6) noticeability of sleep problems by others; and (7) distress caused by the sleep difficulties. A 5-point scale is used to rate each item (0=no problem to 4=very severe problem) yielding a total score from 0 to 28. Total ISI score (items (1)-(7)) and daytime functioning (items (4)-(7)) are analyzed separately.
Month 1 Assessment: Standard safety assessments were performed on the subject. A blood sample was collected for determination of plasma concentration of lemborexant and its metabolites, and the ISI, FSS, PGI-Insomnia, EQ-5D-3L, and eC-SSR were completed.
Month 3 Assessment: All assessments conducted at the Month 1 Assessment were repeated.
Month 6 Assessment: All assessments conducted at the Month 1 Assessment were repeated, and subjects completed the WPAI-GH.
In addition to the aforementioned study endpoints, the study included several additional secondary endpoints: • Mean change from study baseline of subjective sleep onset latency, subjective sleep efficiency, subjective wake after sleep onset, and subjective total sleep time at the beginning of treatment (mean of the 7 nights after the first dose in Period 1), at Month 1 and at Month 3. • Mean change from study baseline of subjective total sleep time at Month 6. • Change from study baseline in daytime functioning, assessed as the total score from the 4 items on daytime functioning, on the Insomnia Severity Index, at Months 1, 3, and 6.

[2] = system: Subjects Having Insomnia Disorder; assay: Example 2: duration of long awakenings; format: in vivo, human; conditions: both doses; relative to placebo, compared with zolpidem ER (FIG. 12)

For `Cc1ncc(OC[C@@]2(c3cccc(F)c3)C[C@H]2C(=O)Nc2ccc(F)cn2)c(C)n1` [Lemborexant, (1R,2S)-2-(((2,4-dimethylpyrimidin-5-yl)oxy)methyl)-2-(3-fluorophenyl)-N-(5-fluoropyridin-2-yl)cyclopropanecarboxamide], the “ISI Daytime Functioning (Items 4-7), Mean” value ([1]; 5 mg, Month 1) was 7.2, the “ISI Daytime Functioning (Items 4-7), Median” value ([1]; 5 mg, Month 1) was 7.0 and the “ISI Daytime Functioning (Items 4-7), Mean” value ([1]; 5 mg, Month 3) was 6.2. The “ISI Daytime Functioning (Items 4-7), Median” value ([1]; 5 mg, Month 3) was 6.0, the “ISI Daytime Functioning (Items 4-7), Mean” value ([1]; 5 mg, Month 6) was 5.4 and the “ISI Daytime Functioning (Items 4-7), Median” value ([1]; 5 mg, Month 6) was 5.0. The “ISI Daytime Functioning Change from Study Baseline, Mean” value (from here on “ISI Daytime Functioning Change … Mean”) ([1]; 5 mg, Month 6) was −6.0, the “ISI Daytime Functioning Change from Study Baseline, Median” value (“ISI Daytime Functioning Change … Median” below) ([1]; 5 mg, Month 6) was −6.0 and the “ISI Daytime Functioning LSM treatment difference: Lemborexant/Placebo” value ([1]; 5 mg, Month 6) was −1.30. For the same compound, the “ISI Daytime Functioning (Items 4-7), Mean” value ([1]; 5 mg, Study Baseline) was 11.4, the “ISI Daytime Functioning (Items 4-7), Median” value ([1]; 5 mg, Study Baseline) was 11.0 and the “ISI Daytime Functioning Change … Mean” value ([1]; 5 mg, after 1 Month) was −4.1. For the same compound, the “ISI Daytime Functioning Change … Median” value ([1]; 5 mg, after 1 Month) was −3.0, the “ISI Daytime Functioning Change … Mean” value ([1]; 5 mg, after 3 Months) was −5.2 and the “ISI Daytime Functioning Change … Median” value ([1]; 5 mg, after 3 Months) was −5.0. For the same compound, the “ISI Daytime Functioning LSM treatment difference: Lemborexant/Placebo” value ([1]; 5 mg, change from Study Baseline after 1 Month) was −0.71, the “ISI Daytime Functioning LSM treatment difference: Lemborexant/Placebo” value ([1]; 5 mg, change from Study Baseline after 3 Months) was −1.16 and the “ISI Daytime Functioning (Items 4-7), Mean” value ([1]; 10 mg, Month 1) was 7.0. The “ISI Daytime Functioning (Items 4-7), Median” value ([1]; 10 mg, Month 1) was 7.0, the “ISI Daytime Functioning (Items 4-7), Mean” value ([1]; 10 mg, Month 3) was 6.0 and the “ISI Daytime Functioning (Items 4-7), Median” value ([1]; 10 mg, Month 3) was 5.0. For the same compound, the “ISI Daytime Functioning (Items 4-7), Mean” value ([1]; 10 mg, Month 6) was 5.4, the “ISI Daytime Functioning (Items 4-7), Median” value ([1]; 10 mg, Month 6) was 5.0 and the “ISI Daytime Functioning Change … Mean” value ([1]; 10 mg, Month 6) was −5.7. The “ISI Daytime Functioning Change … Median” value ([1]; 10 mg, Month 6) was −6.0, the “ISI Daytime Functioning LSM treatment difference: Lemborexant/Placebo” value ([1]; 10 mg, Month 6) was −1.32 and the “ISI Daytime Functioning (Items 4-7), Mean” value ([1]; 10 mg, Study Baseline) was 11.0. For the same compound, the “ISI Daytime Functioning (Items 4-7), Median” value ([1]; 10 mg, Study Baseline) was 11.0, the “ISI Daytime Functioning Change … Mean” value ([1]; 10 mg, after 1 Month) was −4.2 and the “ISI Daytime Functioning Change … Median” value ([1]; 10 mg, after 1 Month) was −4.0. For the same compound, the “ISI Daytime Functioning Change … Mean” value ([1]; 10 mg, after 3 Months) was −5.2, the “ISI Daytime Functioning Change … Median” value ([1]; 10 mg, after 3 Months) was −5.0 and the “ISI Daytime Functioning LSM treatment difference: Lemborexant/Placebo” value ([1]; 10 mg, change from Study Baseline after 1 Month) was −0.94. For the same compound, the “ISI Daytime Functioning LSM treatment difference: Lemborexant/Placebo” value ([1]; 10 mg, change from Study Baseline after 3 Months) was −1.36 and the “length of long awakenings” value [2] was “greater reduction in the length of long awakenings than treatment with zolpidem ER”.
